Test results: the METLIN SMRT retention time set (Domingo-Almenara et al. 2019)

Test: gradient 5% acetonitrile 3 min, to 50% in 2 min, to 85% in 15 min, held 3 min, 100 µL/min
Details: column: Zorbax Extend-C18 2.1 x 50 mm; eluents: water / acetonitrile, 0.1% formic acid
Method in brief: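 Values are retention times taken from adduct peaks that software picked and an analyst inspected. The pure standards were run as mixtures of ~100 molecules on HPLC linked to a quadrupole time-of-flight mass spectrometer, in positive and negative ionization mode. A Zorbax Extend-C18 column (2.1 × 50 mm, 1.8 μm) was used at 100 μL/min with water and acetonitrile, each including 0.1% formic acid.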

Row | Structure (SMILES) | RP-LC retention time
1 | Cc1cc(C)n(CCNC(=O)CSCc2ccccc2)n1 | 683 s
2 | Cc1nnc2ccc(NC3CCCC3)nn12 | 818 s
3 | Cc1cc(=O)n(CC(=O)N2CCc3ccccc32)c(N2CCCC2)n1 | 664 s
4 | O=C(COc1ccccc1[N+](=O)[O-])Nc1nc2c(s1)CCc1ccccc1-2 | 1030 s
5 | COc1cc(NC(=O)N(C)Cc2nc3cc(C(=O)N(C)C)ccc3n2C)cc(OC)c1 | 610 s
6 | Cc1ccc(S(=O)(=O)N2CCN(C3CCN(Cc4cccnc4)C3=O)CC2)c(C)c1 (configuration not stated) | 610 s
7 | Cc1ccccc1C(=O)Nc1nnc(SCc2nnc(-c3ccccc3)o2)s1 | 917 s
8 | COc1ccc(-c2cn3nc(N4CCCC(C(=O)N5CCCC5)C4)sc3n2)cc1 (configuration not stated) | 981 s
9 | Cc1nc(Nc2ccccc2)sc1C(=O)NC1CCCC1 | 869 s
10 | COCc1nc2cccnc2n1C1CCN(C(=O)Nc2cc(OC)ccc2OC)CC1 | 696 s
11 | Cc1cc(C)n(-c2cc(NCc3ccccn3)ncn2)n1 | 600 s
12 | CCCCN1CCN(C(=O)c2cnc(-c3ccccc3)nc2-c2ccncc2)CC1 | 638 s
13 | O=C(Nc1cnc(N2CCOCC2)nc1)c1cc(F)ccc1Cl | 746 s
14 | CCNC(=O)c1sc2nc(-c3ccc(F)cc3)c(NCCOC)n2c1C | 777 s
15 | O=C(COc1ccc(-c2cnc3ccccc3n2)cc1)NCC1CCCO1 (configuration not stated) | 726 s
16 | O=C(c1ccco1)N1c2ccccc2CC1c1nnc(C2CCOCC2)o1 (configuration not stated) | 729 s
17 | COc1cc(NC(=O)CSc2nccc(N3CCN(c4cccc(OC)c4)CC3)n2)cc(OC)c1 | 667 s
18 | Cc1cc(-c2nnc(C3CCC3)o2)c(C)n1CC(=O)NCc1ccc(F)c(Cl)c1 | 904 s
19 | COc1ccc(-n2c(=O)n(C)c(=O)c3cc(C(=O)NCc4ccccc4OC)cnc32)cc1 | 859 s

Row | Structure (SMILES) | RP-LC retention time
20 | COc1ccc(NC(=O)C2CCN(c3nnc4ccccn34)CC2)cc1C(F)(F)F | 704 s
21 | Cc1ccnc(N2CCCC(C(=O)NCC3CCN(Cc4ccccc4C)CC3)C2)n1 (configuration not stated) | 596 s
22 | Cc1nnc2c(=O)n(CC(=O)NCc3ccc(F)cc3)c3cccnc3n12 | 656 s
23 | COc1cc(NC(=O)NCc2cccs2)ccc1N1CCCCC1=O | 645 s
24 | O=C(c1ccccn1)N1CC(n2cnnc2C2CCCO2)C1 (configuration not stated) | 582 s
25 | Cn1ccc2c(cc(C(=O)N3CCN(c4ccccc4F)CC3)n2C)c1=O | 723 s
26 | CCOc1ccc(C2=NC3(CCN(C(C)C)CC3)NC(c3cccc(OC)c3O)C2)cc1 (configuration not stated) | 608 s
27 | Cc1ccccc1CNC(=O)C1c2ccccc2CC(=O)N1C(C)C (configuration not stated) | 827 s
28 | CC(C)c1ccc(NC(=O)CC2COc3ccccc3NC2=O)cc1 (configuration not stated) | 872 s
29 | COc1ccc(-n2c(=O)c(C(=O)NC(C)c3ccccc3)c(O)c3cccnc32)cc1 (configuration not stated) | 1180 s
30 | O=C(c1cccnc1)N1CCC(n2c(-c3ccsc3)nc3cccnc32)C1 (configuration not stated) | 576 s
31 | CNC(=O)c1cc(N2CCCC2)nc2c(Cl)cccc12 | 620 s
32 | Cc1ccc(NC(=O)c2cn(-c3cc(N4CCCC4)ncn3)cn2)c(C)c1 | 961 s
33 | CCn1cnc(S(=O)(=O)N2CCCC(C(=O)Nc3ccc(C)c(Cl)c3)C2)c1 (configuration not stated) | 861 s
34 | Cc1cccc(Oc2coc3cc(OC(=O)c4ccncc4)ccc3c2=O)c1 | 984 s
35 | Cc1ccc(NC(=O)Cn2nc(N3CCOCC3)c3ccccc3c2=O)c(C)c1 | 809 s
36 | CCS(=O)(=O)N1CCC([C@@H](C)n2c(C)c(C(=O)NCc3c(OC)cc(C)[nH]c3=O)c3ccccc32)CC1 | 777 s
37 | Fc1ccc(-c2nc(-c3ccc(-n4ccnc4)nc3)no2)cc1F | 871 s
